Measured values from the supplement of paper PMC8617591.

Tests used:
[1] = system: Mycobacterium tuberculosis Erdman (autoluminescent); experiment: AUC25, normalised area under dose response up to IC25 (fraction (0-1)); higher = more potent at low dose
Protocol: (§1)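 DiaMOND dose responses (10 doses, 1.5- or 2-fold spacing, equipotent around IC90) of autoluminescent M. tuberculosis Erdman in 8 in vitro models. Read-out is OD600, or luminescence for the intracellular (J774) and dormancy models, background-subtracted and normalised to untreated wells. A 3-parameter Hill fit gives Einf and AUC25 (area to IC25 normalised by IC25); GRinf comes from a Hill fit of the Hafner normalised growth rate. Biological replicates passing QC are averaged. Single drugs only.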

[2] = system: Mycobacterium tuberculosis Erdman (autoluminescent); experiment: Einf, fitted maximum growth inhibition (fraction); higher = stronger maximal inhibition
Protocol: as §1

[3] = system: Mycobacterium tuberculosis Erdman (autoluminescent); experiment: GRinf, maximum normalised growth rate inhibition (unitless (-1 to 1)); higher = less effect (negative = killing)
Protocol: as §1

NNC(=O)c1ccncc1 [isoniazid]
Settings | AUC25, [1] | Einf, [2] | GRinf, [3]
in vitro model: acidic pH 5.7, time point: constant (~7 days, model-specific) | 0.0571 | 0.674 | 0.0942
in vitro model: acidic pH 5.7, time point: terminal (~4-5 doublings, model-specific) | 0.0392 | 0.933 | -0.101
in vitro model: intracellular J774, time point: constant = terminal | – | 0.932 | -0.113

Settings | AUC25, [1] | Einf, [2] | GRinf, [3]
in vitro model: butyrate, time point: constant (~7 days, model-specific) | 0.0446 | 0.937 | -0.0682
in vitro model: butyrate, time point: terminal (~4-5 doublings, model-specific) | 0.0452 | 0.981 | -0.137
in vitro model: cholesterol 0.05 mM, time point: constant (~7 days, model-specific) | 0.101 | 0.738 | -0.177
in vitro model: cholesterol 0.05 mM, time point: terminal (~4-5 doublings, model-specific) | 0.0895 | 0.915 | -0.208
in vitro model: cholesterol-high 0.2 mM, time point: constant (~7 days, model-specific) | 0.0813 | 0.905 | -0.466
in vitro model: cholesterol-high 0.2 mM, time point: terminal (~4-5 doublings, model-specific) | 0.0704 | 0.994 | -0.567
in vitro model: dormancy (butyrate + nitrate, low O2), time point: constant (~7 days, model-specific) | 0.0691 | 0.903 | 0.286
in vitro model: dormancy (butyrate + nitrate, low O2), time point: terminal (~4-5 doublings, model-specific) | 0.0601 | 0.982 | -0.0707
in vitro model: standard 7H9 glycerol, time point: constant = terminal | 0.0311 | 0.882 | 0.145
in vitro model: valerate, time point: constant (~7 days, model-specific) | 0.0515 | 0.881 | 0.0138
in vitro model: valerate, time point: terminal (~4-5 doublings, model-specific) | 0.0365 | 0.932 | 0.0316

CC[C@@H](CO)NCCN[C@@H](CC)CO [ethambutol]
Settings | AUC25, [1] | Einf, [2] | GRinf, [3]
in vitro model: acidic pH 5.7, time point: constant (~7 days, model-specific) | 0.103 | 0.785 | -0.121
in vitro model: acidic pH 5.7, time point: terminal (~4-5 doublings, model-specific) | 0.0746 | 0.963 | -0.204
in vitro model: intracellular J774, time point: constant = terminal | – | 0.977 | -0.237

Settings | AUC25, [1] | Einf, [2] | GRinf, [3]
in vitro model: butyrate, time point: constant (~7 days, model-specific) | 0.0706 | 0.86 | 0.144
in vitro model: butyrate, time point: terminal (~4-5 doublings, model-specific) | 0.0701 | 0.918 | 0.173
in vitro model: cholesterol 0.05 mM, time point: constant (~7 days, model-specific) | 0.0906 | 0.621 | 0.0788
in vitro model: cholesterol 0.05 mM, time point: terminal (~4-5 doublings, model-specific) | 0.0751 | 0.907 | -0.193
in vitro model: cholesterol-high 0.2 mM, time point: constant (~7 days, model-specific) | 0.0267 | 0.85 | -0.161
in vitro model: cholesterol-high 0.2 mM, time point: terminal (~4-5 doublings, model-specific) | 0.0346 | 1 | -0.768
in vitro model: dormancy (butyrate + nitrate, low O2), time point: constant (~7 days, model-specific) | 0.0829 | 0.777 | 0.544
in vitro model: dormancy (butyrate + nitrate, low O2), time point: terminal (~4-5 doublings, model-specific) | 0.0685 | 0.914 | 0.295
in vitro model: standard 7H9 glycerol, time point: constant = terminal | 0.0599 | 0.852 | 0.208
in vitro model: valerate, time point: constant (~7 days, model-specific) | 0.0683 | 0.728 | 0.301
in vitro model: valerate, time point: terminal (~4-5 doublings, model-specific) | 0.0665 | 0.832 | 0.297

CO[C@H]1/C=C/O[C@@]2(C)Oc3c(C)c(O)c4c(O)c(c(/C=N/N5CCN(C6CCCC6)CC5)c(O)c4c3C2=O)NC(=O)/C(C)=C\C=C\[C@H](C)[C@H](O)[C@@H](C)[C@@H](O)[C@@H](C)[C@H](OC(C)=O)[C@@H]1C [rifapentine]
Settings | AUC25, [1] | Einf, [2] | GRinf, [3]
in vitro model: acidic pH 5.7, time point: constant (~7 days, model-specific) | 0.0584 | 0.831 | -0.0781
in vitro model: acidic pH 5.7, time point: terminal (~4-5 doublings, model-specific) | 0.0625 | 0.974 | -0.181
in vitro model: intracellular J774, time point: constant = terminal | – | 0.973 | -0.197

Settings | AUC25, [1] | Einf, [2] | GRinf, [3]
in vitro model: butyrate, time point: constant (~7 days, model-specific) | 0.0929 | 0.891 | 0.117
in vitro model: butyrate, time point: terminal (~4-5 doublings, model-specific) | 0.0749 | 0.942 | 0.0762
in vitro model: cholesterol 0.05 mM, time point: constant (~7 days, model-specific) | 0.104 | 0.553 | 0.164
in vitro model: cholesterol 0.05 mM, time point: terminal (~4-5 doublings, model-specific) | 0.065 | 0.861 | -0.00856
in vitro model: cholesterol-high 0.2 mM, time point: constant (~7 days, model-specific) | 0.0607 | 0.877 | -0.186
in vitro model: cholesterol-high 0.2 mM, time point: terminal (~4-5 doublings, model-specific) | 0.053 | 1 | -0.735
in vitro model: dormancy (butyrate + nitrate, low O2), time point: constant (~7 days, model-specific) | 0.0644 | 0.908 | 0.218
in vitro model: dormancy (butyrate + nitrate, low O2), time point: terminal (~4-5 doublings, model-specific) | 0.0566 | 0.989 | -0.11
in vitro model: standard 7H9 glycerol, time point: constant = terminal | 0.0489 | 0.894 | 0.0516
in vitro model: valerate, time point: constant (~7 days, model-specific) | 0.0524 | 0.855 | 0.056
in vitro model: valerate, time point: terminal (~4-5 doublings, model-specific) | 0.0266 | 0.937 | 0.0374
